{"source": "patent US7067489B2", "about": "“Hematopoietic stimulation” (Point Therapeutics, Inc., priority 1998, dated 2006)", "molecules": {"B1": {"name": "G-CSF: granulocyte colony stimulating factor, currently used to accelerate neutrophil recovery in cancer patients undergoing chemotherapy (protein, UniProt P09919 31-207, looked up)", "Granulocyte …": "TPLGPASSLPQSFLLKCLEQVRKIQGDGAALQEKLVSECATYKLCHPEELVLLGHSLGIPWAPLSSCPSQALQLAGCLSQLHSGLFLYQGLLQALEGISPELGPTLDTLQLDVADFATTIWQQMEELGMAPALQPTQGAMPAFASAFQRRAGGVLVASHLQSFLEVSYRVLRHLAQP"}}, "key": {"[1]": {"test_system": "human CD34+ cells (primitive hematopoietic progenitor cells) on stromal cell layer", "assay": "Long-Term Culture (LTC) assay followed by semi-solid colony assay", "type": "cell-based", "from_the_text": "An assay to evaluate the effect of a compound or of growth factors on PHPCs was first described by Dexter (Dexter T. M. et al, J. Cell. Physiol. 91:335–344 (1977)), and combines the Long-Term Culture (LTC) with the semi-solid colony assay. LTC is initiated over a pre-formed stromal cell layer which provides the necessary hematopoietic growth factors. It has been used extensively for the in vitro examination of murine and human hematopoiesis and to evaluate the ability of test compounds to generate LTC-ICs.\nFor the LTC assays, CD34^+ cells were isolated by positive selection from human bone marrow cells, apheresed peripheral blood or umbilical cord blood using a MAC separation system. To establish a stromal feeder layer, human bone marrow cells were cultured in Myelocult long term culture medium for 2 weeks. […] Medium and PT-100 was exchanged every three days thereafter. At the end of the culture period the culture was assayed for progenitor cells by plating in semi-solid medium (methylcellulose) supplemented with growth factors (Stem Cell Factor, GM-CSF, IL-3 and Erythropoietin).\nThe total number of myeloid, erythroid, blast forming and multilineage clonogeneic progenitors (colonies CFU-GM, CFU-E, BFU-E and CFU-GEMM, respectively) were determined after 14 days in methylcellulose culture."}, "[2]": {"test_system": "BALB/c mice", "assay": "Stimulation of hematopoiesis in the spleen of normal mice (splenocyte colony assay)", "type": "in vivo", "settings": "twice daily for 5 days, subcutaneous injection or oral gavage", "method": "On the sixth day the animals were sacrificed and their spleens were excised using sterile procedures. The spleens were disrupted to produce single cell suspensions which were subsequently treated with a solution of Tris ammonium chloride (pH 7.2) to lyse erythrocytes. The resulting splenocyte populations were in a hemocytometer and resuspended at […] in Iscove's Modified Eagles medium (IMDM) supplemented with 2% heat inactivated fetal calf serum. 0.3 mL of each splenocyte solution was added to 3 mL of Methocult™GF M3434 (Stem Cell Technologies, Vancouver, BC, Canada), a methylcellulose medium containing recombinant cytokines used for colony assays of murine progenitor cells. The medium was vigorously mixed and then 1.1 mL of the mixture was placed in duplicate onto sterile 35 mm diameter culture dishes, resulting in 5×10^5 splenocytes/plate. The plated cells were incubated at 37° C. under humidified conditions in 95% air/5% CO2 for 7 days. CFU-E were enumerated as per the manufacturers specifications after 2 days, while BFU-E, CFU-GM and CFU-GEMM were enumerated after 7 days. For each mouse, the absolute CFU/spleen were calculated using the total splenocyte count determined in the hemocytometer. The data shown in FIG. 9 represents the mean±SD CFU/spleen from 3 mice in each dosing group."}, "[3]": {"test_system": "human bone marrow stromal cells", "assay": "Production of G-CSF by human bone marrow stromal cells", "type": "cell-based", "settings": "10^−5 M PT-100, culture media collected on day 1", "method": "Mononuclear cells were purified from bone marrow and cultured long-term culture medium, (Stem Cell Technologies, Inc., Vancouver, B.C.) for 2 weeks, with a single feeding of fresh medium after 1 week. […] Culture media were collected on day 1. Supernatants were assayed for human G-CSF using a Quantikine high sensitivity immuno-assay kit (R+D Systems, Minneapolis, Minn.)."}, "[4]": {"test_system": "human bone marrow CD34+ cells (committed progenitor cells)", "assay": "2 week semi-solid (methylcellulose) colony (CFU) assay", "type": "cell-based", "from_the_text": "Hematopoiesis is sustained by a pool of hematopoietic stem cells (HSCs) that can self-renew and differentiate into hematopoietic progenitor cells (HPCs). HPCs are committed to specific lineages which can be identified based on their colony morphology when grown in semi-solid media in vitro, typically over a 2 week period. The colonies grown in the semi-solid colony assay are functionally defined as colony- or burst-forming units and include BFU-E and CFU-E (cells committed to the erythroid lineage), CFU-GM (cells committed to the granulocytic/monocytic lineage), BFU-MK and CFU-MK (cells committed to the megakaryocyte lineage) and CFU-GEMM (multipotent progenitors)."}, "[5]": {"test_system": "cyclophosphamide treated mice", "assay": "Regeneration of neutrophils in cyclophosphamide-treated mice", "type": "in vivo", "settings": "for neutrophil recovery versus saline treated mice: 5 days; for ANC after treatment was stopped: count on Day 13; for Day on which normal levels of absolute neutrophil counts (ANC) were reached: saline treated mice Day 7", "method": "In these studies, mice were injected intraperitoneally with a sublethal dose of 220 mg/kg cyclophosphamide (Day 1). […] After 72 hours (Day 3) mice were divided into 3 groups. […] G-CSF was used at 0.04 ug/dose (4 μg/kg/day) which is the dose frequently used in published reports studying the G-CSF effects in mice and is also the equivalent dose used in cancer patients. All administrations were performed twice daily (b.i.d.) for 5 consecutive days or as indicated. Blood samples were taken from individual mice on Day 4–8, and in some experiments on Days 13 or 17. At each time pont four or five test animals were sampled. Total and differential white blood cell counts of Gimsa-stained blood smears were performed."}, "[6]": {"test_system": "human bone marrow CD34+ cells (committed progenitor cells)", "settings": "stated as previously shown; cited from earlier work"}, "[7]": {"test_system": "human CD34+ cells (primitive hematopoietic progenitor cells) on stromal cell layer", "settings": "cited from earlier work"}}}
{"molecule": "CC(C)[C@H](N)C(=O)N1CCC[C@H]1B(O)O", "note": "[PT-100, valine-prolineboronic acid]", "values": [{"measurement": "number of 4 and 5 week LTC-ICs", "setting": "[1]; CD34+ cells from apheresed peripheral blood or umbilical cord blood, 30 days on irradiated stromal cells", "result": "increased"}, {"measurement": "growth of very early progenitor cells in LTC assays", "setting": "[1]; all three cell sources (bone marrow, apheresed peripheral blood, umbilical cord blood), LTC-ICs at 4, 5 and 6 weeks", "result": "significantly increased"}, {"measurement": "number of clonogeneic progenitors able to form colonies in semi-solid medium", "setting": "[1]; human bone marrow culture, 4 week LTC assay", "result": "increased, in a dose dependent manner"}, {"measurement": "hematopoiesis in spleen (CFU/spleen: CFU-E, BFU-E, CFU-GM, CFU-GEMM)", "setting": "[2]", "result": "stimulated hematopoiesis for all progenitor colony types tested"}, {"measurement": "production of G-CSF by cultured stromal cells", "setting": "[3]", "result": "stimulates production of G-CSF"}, {"measurement": "differentiation of committed progenitor cells (CFU-E, CFU-GM, CFU-GEMM, BFU-E colonies)", "setting": "[4]; human bone marrow CD34+ cells, 4 h pre-incubation, 14 days in methylcellulose with sub-optimal growth factors", "result": "did not stimulate differentiation"}, {"measurement": "generation of CFUs in the 2 week semi-solid assay", "setting": "[4]; human bone marrow, apheresed peripheral blood or umbilical cord blood cells", "result": "did not stimulate the generation of CFUs"}, {"measurement": "neutrophil recovery over saline", "setting": "[5]; 0.1 μg/b.i.d. oral gavage, 5 consecutive days from Day 3", "result": "did not significantly enhance neutrophil recovery over saline"}, {"measurement": "neutrophil recovery versus saline treated mice", "setting": "[5]; 1 μg/b.i.d. s.c.", "result": "did not show much effect"}, {"measurement": "ANC after treatment was stopped", "setting": "[5]; 2 μg/b.i.d. by gavage for 5 days", "result": "decreased to normal counts by Day 13"}, {"measurement": "neutrophil regeneration during the treatment period, PT-100 versus G-CSF", "setting": "[5]; 2 μg/b.i.d. by gavage, 5 consecutive days from Day 3", "result": "stimulated neutrophil regeneration to a similar level"}, {"measurement": "Day on which normal levels of absolute neutrophil counts (ANC) were reached", "setting": "[5]; 2 μg/b.i.d. oral gavage", "result": 5, "unit": "days"}, {"measurement": "Day on which normal levels of absolute neutrophil counts (ANC) were reached", "setting": "[5]; 5 μg/b.i.d. oral gavage", "result": 5, "unit": "days"}, {"measurement": "neutrophil recovery versus saline treated mice", "setting": "[5]; 5 μg/b.i.d. s.c.", "result": "accelerated"}, {"measurement": "neutrophil recovery versus saline treated mice", "setting": "[5]; 10 μg/b.i.d. s.c.", "result": "accelerated"}, {"measurement": "neutrophil recovery versus saline treated mice", "setting": "[5]; 20 μg/b.i.d. s.c.", "result": "accelerated"}, {"measurement": "rate of neutrophil recovery with additional administration for 2 or 3 days", "setting": "[5]; gavage b.i.d. for 2 or 3 days starting Day 3", "result": "increased the rate of recovery even further"}, {"measurement": "reconstitution of neutrophils after one day of administration", "setting": "[5]; gavage b.i.d. for 1 day starting Day 3 (5, 2 or 1 μg/b.i.d.)", "result": "accelerated reconstitution of neutrophils over saline treated animals"}, {"measurement": "rate of neutrophil recovery or ANC with 4 or 5 days versus 3 day administration", "setting": "[5]; gavage b.i.d., total of 4 or 5 days", "result": "does not significantly increase"}, {"measurement": "effect of additional administration on Days 5, 6 and 7 on ANC", "setting": "[5]; oral gavage b.i.d.", "result": "caused a further increase in ANC"}, {"measurement": "neutrophil recovery, twice daily versus once per day administration", "setting": "[5]; s.c., five day period from Day 3, both doses tested", "result": "faster rate of neutrophil recovery to higher neutrophil levels"}]}
{"molecule": "B1", "values": [{"measurement": "CFU formation in the 2 week semi-solid assay", "setting": "[6]", "result": "stimulate CFU formation"}, {"measurement": "effect on growth of early human hematopoietic progenitor cells", "setting": "[7]", "result": "not affected"}, {"measurement": "ANC after treatment was stopped", "setting": "[5]; 0.04 μg/b.i.d. s.c. for 5 days", "result": "decreased to normal counts by Day 13"}, {"measurement": "neutrophil regeneration during the treatment period, PT-100 versus G-CSF", "setting": "[5]; 0.04 μg/b.i.d. subcutaneous injections, 5 consecutive days from Day 3", "result": "stimulated neutrophil regeneration to a similar level"}]}
